Experimental data published in BigSolDB 2.1.

COC(=O)[C@H](N)c1ccccc1.Cl
solubility (mole fraction)
Settings	in acetone	in ethanol	in ethyl acetate	in methanol	in toluene	in water
283.15 K	1.3e-05	0.015	3.9e-05	0.076	9e-06	0.045
293.15 K	3.6e-05	0.022	8.5e-05	0.081	1.5e-05	0.058
303.15 K	7.8e-05	0.028	0.00015	0.085	2.3e-05	0.068
313.15 K	0.00013	0.033	0.00021	0.09	3.3e-05	0.077
323.15 K	0.00018	0.037	0.00025	0.096	4.4e-05	0.086
333.15 K	0.00025	0.042	0.00029	0.1	5.6e-05	0.095
